Source: publication doi:10.1101/2022.12.11.519956v1 (biorxiv, 2022)

Molecular target: T1, SauUSI (Staphylococcus aureus, UniProt A0A0H2XK17)
T1 sequence (A0A0H2XK17 1-953): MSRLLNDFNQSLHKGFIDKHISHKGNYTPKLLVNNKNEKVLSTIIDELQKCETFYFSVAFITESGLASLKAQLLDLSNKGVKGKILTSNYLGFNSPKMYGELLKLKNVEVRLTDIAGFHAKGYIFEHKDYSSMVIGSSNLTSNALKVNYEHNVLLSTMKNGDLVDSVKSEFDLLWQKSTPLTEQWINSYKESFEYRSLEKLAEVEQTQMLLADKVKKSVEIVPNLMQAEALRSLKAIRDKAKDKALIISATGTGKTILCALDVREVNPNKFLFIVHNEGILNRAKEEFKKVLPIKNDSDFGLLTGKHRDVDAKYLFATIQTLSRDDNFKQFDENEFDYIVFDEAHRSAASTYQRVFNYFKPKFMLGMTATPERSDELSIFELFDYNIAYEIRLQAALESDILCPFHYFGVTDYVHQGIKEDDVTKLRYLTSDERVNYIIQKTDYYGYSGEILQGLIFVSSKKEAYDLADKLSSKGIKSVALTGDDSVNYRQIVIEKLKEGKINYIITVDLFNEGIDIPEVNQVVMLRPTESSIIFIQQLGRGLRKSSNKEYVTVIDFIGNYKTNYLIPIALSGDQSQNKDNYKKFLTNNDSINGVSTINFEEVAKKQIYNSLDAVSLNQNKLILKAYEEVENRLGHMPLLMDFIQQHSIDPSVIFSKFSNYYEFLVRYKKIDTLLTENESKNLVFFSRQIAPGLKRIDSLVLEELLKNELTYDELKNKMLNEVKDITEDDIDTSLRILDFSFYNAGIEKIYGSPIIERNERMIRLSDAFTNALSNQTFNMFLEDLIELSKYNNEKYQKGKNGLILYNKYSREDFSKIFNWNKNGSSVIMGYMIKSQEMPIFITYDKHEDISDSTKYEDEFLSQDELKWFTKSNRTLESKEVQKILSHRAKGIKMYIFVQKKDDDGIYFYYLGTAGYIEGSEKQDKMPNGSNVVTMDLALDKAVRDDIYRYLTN
Experiment: biochemical

Compound `Nc1ncnc2c1ncn2[C@@H]1O[C@H](COP(=O)(O)OP(=O)(O)OP(=O)(O)O)[C@@H](O)[C@H]1O` [ATP] has an IC50 of ~760 µM.
